Where “and” joins values, the source holds several entries; their conditions need not be identical. Equal values may be shown once. Inconclusive results and toxic doses are left out.
System: P388 leukemia ip, CD2F1 mice, survival T/C
Assay: NCI In Vivo Anticancer Drug Screen. Data for tumor model P388 Leukemia (intraperitoneal) in CD2F1 (CDF1) mice
Conditions: endpoint: median survival time, higher = longer survival
Outline: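 Mice carrying the transplanted tumor received test compound or vehicle. Survival was recorded in each group, and the value is the treated-group measurement divided by that of the vehicle-treated control group.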

COc1cc2cc(c1Cl)N(C)C(=O)C[C@H](OC(=O)[C@H](C)N(C)C(C)=O)[C@]1(C)O[C@H]1[C@H](C)[C@@H]1C[C@@](O)(NC(=O)O1)[C@H](OC)C=C/C=C(\C)C2
T/C (dose: 0.01 mg/kg/injection, schedule: Q01DX005 (iv), vehicle: saline): 117 % of control | T/C (dose: 0.03 mg/kg/injection, schedule: Q01DX005 (iv), vehicle: saline): 107 % of control | T/C (dose: 0.05 mg/kg/injection, schedule: Q01DX005 (ip), vehicle: saline): 158 % of control | T/C (dose: 0.05 mg/kg/injection, schedule: Q01DX005 (iv), vehicle: saline): 104 % of control | T/C (dose: 0.05 mg/kg/injection, schedule: Q04DX002 (ip), vehicle: saline + alcohol): 169 % of control | T/C (dose: 0.08 mg/kg/injection, schedule: Q04DX002 (ip), vehicle: saline + alcohol): 171 % of control | T/C (dose: 0.1 mg/kg/injection, schedule: Q01DX005 (ip), vehicle: saline): 172 % of control | T/C (dose: 0.1 mg/kg/injection, schedule: Q01DX005 (iv), vehicle: saline): 107 % of control | T/C (dose: 0.16 mg/kg/injection, schedule: Q04DX003 (ip), vehicle: saline): 123 % of control | T/C (dose: 0.1 micrograms/kg/injection, schedule: Q01DX009 (ip), vehicle: saline): 100 % of control | T/C (dose: 0.3 micrograms/kg/injection, schedule: Q03HX016 (ip), vehicle: other): 122 % of control | T/C (dose: 0.4 micrograms/kg/injection, schedule: Q01DX009 (ip), vehicle: saline): 112 % of control | T/C (dose: 0.5 micrograms/kg/injection, schedule: Q01DX009 (oral), vehicle: other): 100 % of control | T/C (dose: 0.5 micrograms/kg/injection, schedule: Q01DX009 (sc), vehicle: other): 100 % of control | T/C (dose: 0.5 micrograms/kg/injection, schedule: Q03HX008 (ip), vehicle: other): 122 % of control | T/C (dose: 0.8 micrograms/kg/injection, schedule: Q01DX009 (ip), vehicle: saline): 120 % of control | T/C (dose: 1.0 micrograms/kg/injection, schedule: Q01DX001 (ip), vehicle: other): 109 % of control | T/C (dose: 1.0 micrograms/kg/injection, schedule: Q01DX009 (ip), vehicle: saline + alcohol): 111 % of control | T/C (dose: 1.0 micrograms/kg/injection, schedule: Q01DX009 (oral), vehicle: other): 100 % of control | T/C (dose: 1.0 micrograms/kg/injection, schedule: Q01DX009 (sc), vehicle: other): 100 % of control | T/C (dose: 1.0 micrograms/kg/injection, schedule: Q08DX002 (ip), vehicle: other): 109 % of control | T/C (dose: 2.0 micrograms/kg/injection, schedule: Q01DX001 (oral), vehicle: other): 100 % of control | T/C (dose: 2.0 micrograms/kg/injection, schedule: Q01DX001 (sc), vehicle: other): 100 % of control | T/C (dose: 2.0 micrograms/kg/injection, schedule: Q01DX009 (ip), vehicle: water): 117 % of control | T/C (dose: 2.0 micrograms/kg/injection, schedule: Q01DX009 (sc), vehicle: other): 100 % of control | T/C (dose: 3.1 micrograms/kg/injection, schedule: Q01DX009 (ip), vehicle: saline + alcohol): 158 % of control | T/C (dose: 4.0 micrograms/kg/injection, schedule: Q01DX001 (oral), vehicle: other): 100 % of control | T/C (dose: 4.0 micrograms/kg/injection, schedule: Q01DX009 (ip), vehicle: other): 154 % of control | T/C (dose: 4.0 micrograms/kg/injection, schedule: Q01DX009 (ip), vehicle: water): 157 % of control | T/C (dose: 4.0 micrograms/kg/injection, schedule: Q01DX009 (oral), vehicle: other): 104 % of control | T/C (dose: 4.0 micrograms/kg/injection, schedule: Q01DX009 (sc), vehicle: other): 100 % of control | T/C (dose: 4.0 micrograms/kg/injection, schedule: Q03HX016 (ip), vehicle: other): 159 % of control | T/C (dose: 6.3 micrograms/kg/injection, schedule: Q01DX009 (ip), vehicle: saline + alcohol): 160 % of control | T/C (dose: 6.3 micrograms/kg/injection, schedule: Q01DX009 (ip), vehicle: saline): 159 % of control | T/C (dose: 8.0 micrograms/kg/injection, schedule: Q01DX001 (oral), vehicle: other): 104 % of control | T/C (dose: 8.0 micrograms/kg/injection, schedule: Q01DX001 (sc), vehicle: other): 100 % of control | T/C (dose: 8.0 micrograms/kg/injection, schedule: Q01DX005 (ip), vehicle: saline + alcohol): 157 % of control | T/C (dose: 8.0 micrograms/kg/injection, schedule: Q01DX009 (ip), vehicle: other): 154 % of control | T/C (dose: 8.0 micrograms/kg/injection, schedule: Q01DX009 (ip), vehicle: water): 150 % of control | T/C (dose: 8.0 micrograms/kg/injection, schedule: Q01DX009 (oral), vehicle: other): 100 % of control | T/C (dose: 8.0 micrograms/kg/injection, schedule: Q01DX009 (sc), vehicle: other): 100 % of control | T/C (dose: 8.0 micrograms/kg/injection, schedule: Q03HX008 (ip), vehicle: other): 163 % of control | T/C (dose: 8.0 micrograms/kg/injection, schedule: Q03HX016 (ip), vehicle: other): 163 % of control | T/C (dose: 8.0 micrograms/kg/injection, schedule: Q03HX016 (ip), vehicle: saline + alcohol): 163 % of control | T/C (dose: 8.0 micrograms/kg/injection, schedule: Q04DX003 (ip), vehicle: other): 150 % of control | T/C (dose: 12.5 micrograms/kg/injection, schedule: Q01DX009 (ip), vehicle: saline + alcohol): 159 % of control and 172 % of control | T/C (dose: 16.0 micrograms/kg/injection, schedule: Q01DX001 (oral), vehicle: other): 100 % of control
